Results published in US8846704B2, “Thiopyrimidine-based compounds and uses thereof” (YM Biosciences Austraila Pty Ltd, priority 2007, dated 2014).

What was measured:
human JAK1 = target: T1, human JAK1 (Homo sapiens, UniProt P23458); test: Alphascreen tyrosine kinase enzyme assay, JAK1 kinase domain; type: biochemical; conditions: read-out: JAK1 IC50_nM
T1 construct: The kinase domain of human JAK1 was amplified; GST (N); made in house; host or cells: Sf9 insect cells (baculovirus)

BaF3 wild-type cells = test: Cellular screening, BaF3 wild-type cells, Alamar Blue; type: cell-based; conditions: Mus musculus, 40 hr, read-out: BAF3wt IC50_nM
Method in brief: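 Compounds, screened from dilution plates at 20 μM, were added as 10× final stocks to cells grown in DMEM/10% FCS/10% WEHI 3B conditioned medium. Cells were seeded at 1.1× final (50,000–200,000 cells/mL) and incubated 40 hr at 37° C, 5% CO2. Viability was read at 544 nm after a further 4–6 hours with Alamar Blue.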

Blk(m) = target: T2, Blk(m) (Mus musculus, UniProt P16277); test: Upstate KinaseProfiler enzyme assay, Blk; type: biochemical; conditions: 500 nM compound; read-out: Percent inhibition at 500 nM Blk(m)
T2 construct: purchased Upstate Biotechnology (Dundee, UK), KinaseProfiler service
Method in brief: (§1)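 Outsourced biochemical kinase assays; enzyme stocks at 10× working concentration in MOPS/EDTA/β-mercaptoethanol/Brij-35/glycerol/BSA buffer, pH 7.0.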

BTK(h) = target: T3, BTK(h) (Homo sapiens, UniProt Q06187); test: Upstate KinaseProfiler enzyme assay, BTK; type: biochemical; conditions: 500 nM compound; read-out: Percent inhibition at 500 nM BTK(h)
T3 construct: purchased Upstate Biotechnology (Dundee, UK), KinaseProfiler service
Method in brief: as §1

Flt 1(h) = target: T4, Flt 1(h) (Homo sapiens, UniProt P17948); test: Upstate KinaseProfiler enzyme assay, Flt 1; type: biochemical; conditions: 500 nM compound; read-out: Percent inhibition at 500 nM Flt 1(h)
T4 construct: purchased Upstate Biotechnology (Dundee, UK), KinaseProfiler service
Method: (§2) Further enzyme assays were conducted at Upstate Biotechnology (Dundee, UK) in the KinaseProfiler™ Assay system.
(§3) The general protocol is as follows. All kinases are pre-diluted to a 10× working concentration prior to addition into the assay. The composition of the dilution buffer for the kinases is 20 mM MOPS pH 7.0, 1 mM EDTA, 0.1% β-mercaptoethanol, 0.01% Brij-35, 5% glycerol, 1 mg/ml BSA. All substrates are dissolved and diluted to working stocks in de-ionised water.

Flt 4(h) = target: T5, Flt 4(h) (Homo sapiens, UniProt P35916); test: Upstate KinaseProfiler enzyme assay, Flt 4; type: biochemical; conditions: 500 nM compound; read-out: Percent inhibition at 500 nM Flt 4(h)
T5 construct: purchased Upstate Biotechnology (Dundee, UK), KinaseProfiler service
Method: as §2, §3

KDR(h) = target: T6, KDR(h) (Homo sapiens, UniProt P35968); test: Upstate KinaseProfiler enzyme assay, KDR; type: biochemical; conditions: 500 nM compound; read-out: Percent inhibition at 500 nM KDR(h)
T6 construct: purchased Upstate Biotechnology (Dundee, UK), KinaseProfiler service
Method in brief: as §1

CTLL2 = test: Cellular screening, CTLL2 cells, Alamar Blue; type: cell-based; conditions: Mus musculus, CTLL-2, read-out: CTLL2 IC50_nM
Method in brief: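 Viability is read with Alamar Blue at 544 nm, the dye added for the final 4-6 hours. Compounds were incubated for 40 hr with CTLL2 cells taken from late-log-phase culture, at 37° C in 5% CO2.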

T4 sequence (P17948 27-1338): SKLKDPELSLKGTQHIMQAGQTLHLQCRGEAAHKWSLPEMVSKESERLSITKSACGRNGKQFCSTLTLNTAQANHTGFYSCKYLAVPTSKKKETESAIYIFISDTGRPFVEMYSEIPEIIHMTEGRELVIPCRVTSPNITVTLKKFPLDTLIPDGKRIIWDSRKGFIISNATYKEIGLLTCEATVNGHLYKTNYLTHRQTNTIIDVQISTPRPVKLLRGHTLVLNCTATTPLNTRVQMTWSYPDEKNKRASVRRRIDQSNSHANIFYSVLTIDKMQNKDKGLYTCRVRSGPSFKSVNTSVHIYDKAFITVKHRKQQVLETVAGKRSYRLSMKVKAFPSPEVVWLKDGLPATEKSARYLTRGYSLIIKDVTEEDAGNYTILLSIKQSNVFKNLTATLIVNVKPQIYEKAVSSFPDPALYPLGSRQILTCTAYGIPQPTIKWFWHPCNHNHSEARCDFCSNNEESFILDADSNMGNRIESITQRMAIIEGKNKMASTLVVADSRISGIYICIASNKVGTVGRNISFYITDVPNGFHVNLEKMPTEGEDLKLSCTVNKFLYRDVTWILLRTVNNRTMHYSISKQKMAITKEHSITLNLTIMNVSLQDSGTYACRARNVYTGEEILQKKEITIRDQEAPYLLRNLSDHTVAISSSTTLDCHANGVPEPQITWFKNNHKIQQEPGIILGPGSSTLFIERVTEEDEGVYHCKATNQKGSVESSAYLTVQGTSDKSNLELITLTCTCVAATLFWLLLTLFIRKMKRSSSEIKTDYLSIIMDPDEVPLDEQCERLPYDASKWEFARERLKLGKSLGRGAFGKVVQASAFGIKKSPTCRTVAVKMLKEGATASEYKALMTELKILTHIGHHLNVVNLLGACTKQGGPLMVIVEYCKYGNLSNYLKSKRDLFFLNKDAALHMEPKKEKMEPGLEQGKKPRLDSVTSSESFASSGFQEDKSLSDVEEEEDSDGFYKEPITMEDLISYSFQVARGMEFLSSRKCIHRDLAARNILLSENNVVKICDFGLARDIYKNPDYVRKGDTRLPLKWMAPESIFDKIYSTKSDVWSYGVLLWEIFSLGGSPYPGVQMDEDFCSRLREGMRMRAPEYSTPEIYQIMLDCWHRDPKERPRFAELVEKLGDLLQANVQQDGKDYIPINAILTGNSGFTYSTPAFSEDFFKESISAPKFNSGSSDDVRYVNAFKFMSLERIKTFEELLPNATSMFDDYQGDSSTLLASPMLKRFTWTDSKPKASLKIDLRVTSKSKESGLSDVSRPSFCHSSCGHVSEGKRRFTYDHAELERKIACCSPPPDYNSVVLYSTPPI
T1 sequence (P23458 875-1153 limits assumed): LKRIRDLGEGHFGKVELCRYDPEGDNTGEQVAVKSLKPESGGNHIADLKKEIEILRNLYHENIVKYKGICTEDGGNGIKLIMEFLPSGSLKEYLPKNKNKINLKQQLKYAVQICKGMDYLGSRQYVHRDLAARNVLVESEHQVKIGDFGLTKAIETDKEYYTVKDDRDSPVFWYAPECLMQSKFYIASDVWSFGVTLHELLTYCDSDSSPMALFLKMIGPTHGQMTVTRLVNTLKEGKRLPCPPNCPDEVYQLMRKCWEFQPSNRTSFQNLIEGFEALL
T5 sequence (P35916 25-1363): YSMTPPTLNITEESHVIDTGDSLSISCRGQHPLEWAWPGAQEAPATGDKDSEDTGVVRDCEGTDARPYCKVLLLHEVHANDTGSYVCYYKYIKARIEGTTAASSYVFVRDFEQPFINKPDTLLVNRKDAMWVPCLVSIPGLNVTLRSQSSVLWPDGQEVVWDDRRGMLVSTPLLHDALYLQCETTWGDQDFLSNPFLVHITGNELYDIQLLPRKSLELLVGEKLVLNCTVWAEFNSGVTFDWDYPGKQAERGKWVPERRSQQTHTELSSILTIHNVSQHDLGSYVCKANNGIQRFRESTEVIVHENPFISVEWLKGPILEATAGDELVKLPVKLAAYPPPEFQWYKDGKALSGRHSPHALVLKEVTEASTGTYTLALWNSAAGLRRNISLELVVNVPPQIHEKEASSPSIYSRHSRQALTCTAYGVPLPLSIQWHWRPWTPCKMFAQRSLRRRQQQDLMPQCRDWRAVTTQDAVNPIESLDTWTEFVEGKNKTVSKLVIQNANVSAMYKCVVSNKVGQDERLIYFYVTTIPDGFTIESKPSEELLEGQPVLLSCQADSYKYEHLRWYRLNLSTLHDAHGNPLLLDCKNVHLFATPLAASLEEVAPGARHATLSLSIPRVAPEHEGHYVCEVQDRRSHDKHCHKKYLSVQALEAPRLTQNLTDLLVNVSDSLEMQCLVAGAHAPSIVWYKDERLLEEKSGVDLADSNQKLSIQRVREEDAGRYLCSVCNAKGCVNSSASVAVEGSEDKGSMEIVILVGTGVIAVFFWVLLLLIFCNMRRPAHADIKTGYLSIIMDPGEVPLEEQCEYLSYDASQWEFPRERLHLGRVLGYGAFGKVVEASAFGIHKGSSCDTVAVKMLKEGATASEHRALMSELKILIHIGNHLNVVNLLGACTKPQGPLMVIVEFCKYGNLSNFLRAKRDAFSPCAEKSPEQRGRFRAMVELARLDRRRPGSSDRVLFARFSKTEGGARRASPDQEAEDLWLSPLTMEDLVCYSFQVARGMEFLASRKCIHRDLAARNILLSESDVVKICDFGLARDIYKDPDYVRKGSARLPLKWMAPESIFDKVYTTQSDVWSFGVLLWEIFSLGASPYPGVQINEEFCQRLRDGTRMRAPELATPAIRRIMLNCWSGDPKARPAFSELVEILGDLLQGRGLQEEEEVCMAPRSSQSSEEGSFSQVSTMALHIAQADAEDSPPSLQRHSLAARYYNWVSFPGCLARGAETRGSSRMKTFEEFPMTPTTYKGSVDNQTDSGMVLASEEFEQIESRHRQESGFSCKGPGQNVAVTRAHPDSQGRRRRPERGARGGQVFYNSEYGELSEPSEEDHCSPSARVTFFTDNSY
T3 sequence (Q06187 whole entry): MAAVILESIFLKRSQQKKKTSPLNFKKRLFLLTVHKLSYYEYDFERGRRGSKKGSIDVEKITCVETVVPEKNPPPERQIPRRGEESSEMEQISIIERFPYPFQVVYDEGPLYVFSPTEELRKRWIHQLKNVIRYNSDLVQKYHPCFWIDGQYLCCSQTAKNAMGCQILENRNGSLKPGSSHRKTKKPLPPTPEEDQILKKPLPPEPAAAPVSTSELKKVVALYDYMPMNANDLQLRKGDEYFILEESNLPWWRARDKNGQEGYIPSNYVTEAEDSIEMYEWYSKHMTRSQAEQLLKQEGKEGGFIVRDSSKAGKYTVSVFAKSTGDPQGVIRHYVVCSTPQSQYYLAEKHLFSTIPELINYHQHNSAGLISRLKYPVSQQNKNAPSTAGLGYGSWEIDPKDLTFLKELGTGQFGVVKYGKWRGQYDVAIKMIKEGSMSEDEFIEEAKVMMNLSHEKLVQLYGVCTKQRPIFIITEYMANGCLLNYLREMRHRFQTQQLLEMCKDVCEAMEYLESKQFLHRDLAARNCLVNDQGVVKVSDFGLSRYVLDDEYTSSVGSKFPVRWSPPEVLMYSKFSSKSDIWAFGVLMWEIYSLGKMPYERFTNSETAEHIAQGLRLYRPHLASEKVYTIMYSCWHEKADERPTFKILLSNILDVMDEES
T2 sequence (P16277 whole entry): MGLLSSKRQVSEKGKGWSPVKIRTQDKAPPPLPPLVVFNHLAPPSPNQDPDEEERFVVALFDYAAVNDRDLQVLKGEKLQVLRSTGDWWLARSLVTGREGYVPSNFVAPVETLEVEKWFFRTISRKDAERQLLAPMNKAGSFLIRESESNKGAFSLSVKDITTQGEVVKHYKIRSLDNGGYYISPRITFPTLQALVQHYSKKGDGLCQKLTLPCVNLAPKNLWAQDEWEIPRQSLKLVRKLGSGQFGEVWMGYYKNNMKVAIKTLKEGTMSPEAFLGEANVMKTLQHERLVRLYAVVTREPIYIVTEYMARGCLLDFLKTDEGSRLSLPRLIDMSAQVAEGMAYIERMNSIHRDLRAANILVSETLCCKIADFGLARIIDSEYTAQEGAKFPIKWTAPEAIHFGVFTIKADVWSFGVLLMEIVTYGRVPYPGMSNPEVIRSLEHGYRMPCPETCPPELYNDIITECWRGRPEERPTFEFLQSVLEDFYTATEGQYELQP

| Structure (SMILES) | IC50 (human JAK1) [nM] | IC50 (BaF3 wild-type cells) [nM] | inhibition at 0.5 µM (Blk(m)) [%] | inhibition at 0.5 µM (BTK(h)) [%] | inhibition at 0.5 µM (Flt 1(h)) [%] | inhibition at 0.5 µM (Flt 4(h)) [%] | inhibition at 0.5 µM (KDR(h)) [%] | IC50 (CTLL2) [nM] |
| --- | --- | --- | --- | --- | --- | --- | --- | --- |
| O=C(/C=C/Cl)Nc1cccc(Sc2ccnc(Nc3ccc(N4CCOCC4)cc3)n2)c1 [Compound 340, (E)-3-chloro-N-(3-(2-(4-morpholinophenylao)pyrimidin-4-ylthio)phenyl)acrylamide] | > 1000 | < 5000 | 99 | 97 | 100 | 95 | 94 | < 5000 |
| C=CC(=O)Nc1ccc(Sc2nc(Nc3ccc(OC)c(OC)c3)ncc2C)cc1 [Compound 241, N-(4-(2-(3,4-dimethoxyphenylao)-5-methylpyrimidin-4-ylthio)phenyl)acrylamide] | > 1000 | < 20000 | 98 | 88 | 100 | 100 | 97 | < 1000 |
| N#Cc1nnn(Cc2ccc(Sc3ccnc(Nc4ccc(N5CCOCC5)cc4)n3)cc2)n1 [Compound 156, 2-(4-(2-(4-morpholinophenylao)pyrimidin-4-ylthio)benzyl)-2H-tetrazole-5-carbonitrile] | > 1000 | < 5000 | 41 | 81 | 80 | 94 | 97 | < 5000 |
| C=CC(=O)Nc1ccc(Sc2nc(Nc3ccc(N4CCN(C)CC4)cc3)ncc2C)cc1 [Compound 239, N-(4-(5-methyl-2-(4-(4-methylpiperazin-1-yl)phenylao)pyrimidin-4-ylthio)phenyl)acrylamide] | < 500 | < 5000 | 99 | 97 | 100 | 100 | 96 | < 1000 |
| C=CC(=O)Nc1ccc(Sc2ccnc(Nc3ccc(S(N)(=O)=O)c(OC)c3)n2)cc1 [Compound 374, N-(4-(2-(3-methoxy-4-sulfamoylphenylao)pyrimidin-4-ylthio)phenyl)acrylamide] | > 1000 | < 5000 | 96 | 96 | 100 | 100 | 96 | < 20000 |
| C=CC(=O)Nc1ccc(Sc2nc(Nc3ccc(NS(C)(=O)=O)cc3)ncc2C)cc1 [Compound 285, N-(4-(5-methyl-2-(4-(methylsulfonamido)phenylao)pyrimidin-4-ylthio)phenyl)acrylamide] | > 1000 | < 5000 | 97 | 91 | 95 | 98 | 94 | < 1000 |
| C=CC(=O)Nc1ccc(Sc2nc(Nc3ccc(N4CCOCC4)c(OC)c3)ncc2C)cc1 [Compound 248, N-(4-(2-(3-methoxy-4-morpholinophenylao)-5-methylpyrimidin-4-ylthio)phenyl)acrylamide] | > 1000 | < 5000 | 92 | 80 | 95 | 100 | 95 | < 1000 |
| C=CC(=O)Nc1ccc(Sc2nc(Nc3cccc(N4CCOCC4)c3)ncc2F)cc1 [Compound 267, N-(4-(5-fluoro-2-(3-morpholinophenylao)pyrimidin-4-ylthio)phenyl)acrylamide] | > 1000 | < 5000 | 96 | 94 | 100 | 100 | 94 | < 1000 |
